Calls of active or inactive are those of the source. The rule behind the calls is not given here.
Assays:
[1] = target: Endothelial PAS domain-containing protein 1 (Homo sapiens) (UniProt Q99814); test: potency against HIF reporters across cell lines – luminescence, panel, selectivity assay for HIF-2a inhibitor project, dose response (AID 651581); settings: human cell HIF reporter
[2] = target: Hypoxia-inducible factor 1-alpha (Homo sapiens) (UniProt Q16665); test: as above; settings: human cell HIF reporter, HIF-1a
Chain of Hypoxia-inducible factor 1-alpha (Homo sapiens) (Q16665 whole entry, looked up): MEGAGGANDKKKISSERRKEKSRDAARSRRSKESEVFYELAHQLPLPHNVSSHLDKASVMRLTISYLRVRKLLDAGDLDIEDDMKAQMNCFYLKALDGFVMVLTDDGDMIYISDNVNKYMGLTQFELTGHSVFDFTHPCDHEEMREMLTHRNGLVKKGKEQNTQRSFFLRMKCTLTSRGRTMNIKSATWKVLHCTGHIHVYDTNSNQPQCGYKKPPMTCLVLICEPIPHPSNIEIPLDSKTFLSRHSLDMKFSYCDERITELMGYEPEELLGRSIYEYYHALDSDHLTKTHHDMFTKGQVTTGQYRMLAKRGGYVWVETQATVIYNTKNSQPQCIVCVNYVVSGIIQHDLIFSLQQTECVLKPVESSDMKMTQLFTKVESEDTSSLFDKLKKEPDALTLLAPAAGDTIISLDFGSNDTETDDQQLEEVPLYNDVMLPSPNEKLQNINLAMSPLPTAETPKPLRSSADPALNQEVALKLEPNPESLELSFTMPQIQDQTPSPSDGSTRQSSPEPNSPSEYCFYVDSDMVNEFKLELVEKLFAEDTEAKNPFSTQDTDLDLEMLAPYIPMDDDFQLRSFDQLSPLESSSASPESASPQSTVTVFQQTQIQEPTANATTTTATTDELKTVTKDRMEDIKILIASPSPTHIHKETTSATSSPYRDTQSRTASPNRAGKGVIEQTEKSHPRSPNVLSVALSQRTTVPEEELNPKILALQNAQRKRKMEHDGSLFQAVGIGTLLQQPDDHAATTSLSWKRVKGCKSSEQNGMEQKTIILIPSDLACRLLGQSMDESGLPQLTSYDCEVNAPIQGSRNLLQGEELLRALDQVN

## CSc1ccc(/C=N/Nc2cccc(C(=O)O)c2)cc1
[1]; HIF-2a PANC, mean of runs
  IC50: > 99 µM (inactive)
[1]; HIF-2a PANC, run 1
  IC50: > 99 µM
[1]; HIF-2a PANC, run 2
  IC50: > 99 µM
[1]; HIF-2a, mean of runs
  IC50: 5.33 µM
[1]; HIF-2a, run 1
  IC50: 5.25 µM
[1]; HIF-2a, run 2
  IC50: 5.4 µM
[2]; run 1
  IC50: > 99 µM
[2]; run 2
  IC50: > 99 µM

## COc1ccc(-n2nc3ccc(N)cc3n2)cc1
[1]; HIF-2a PANC, mean of runs
  IC50: 2.26 µM
[1]; HIF-2a PANC, run 1
  IC50: 3.23 µM
[1]; HIF-2a PANC, run 2
  IC50: 1.3 µM
[1]; HIF-2a, mean of runs
  IC50: inactive
[1]; HIF-2a, run 1
  IC50: 7.4 µM
[1]; HIF-2a, run 2
  IC50: 14.9 µM
[2]; mean of runs
  IC50: 43.5 µM
[2]; run 1
  IC50: 24.9 µM
[2]; run 2
  IC50: 62.1 µM
